Changes are numbered by the printed parent chain.
Columns and labels:
FLT3 D835V = molecular target: T1, FLT3 D835V (Homo sapiens, UniProt P36888, D835V); test: DiscoverX KINOMEscan competition binding, FLT3 D835V; conditions: no ATP
T1 construct: purchased DiscoverX (KINOMEscan); host or cells: E. coli (T7 phage) or HEK-293
T1 sequence (P36888 27-993 D835V): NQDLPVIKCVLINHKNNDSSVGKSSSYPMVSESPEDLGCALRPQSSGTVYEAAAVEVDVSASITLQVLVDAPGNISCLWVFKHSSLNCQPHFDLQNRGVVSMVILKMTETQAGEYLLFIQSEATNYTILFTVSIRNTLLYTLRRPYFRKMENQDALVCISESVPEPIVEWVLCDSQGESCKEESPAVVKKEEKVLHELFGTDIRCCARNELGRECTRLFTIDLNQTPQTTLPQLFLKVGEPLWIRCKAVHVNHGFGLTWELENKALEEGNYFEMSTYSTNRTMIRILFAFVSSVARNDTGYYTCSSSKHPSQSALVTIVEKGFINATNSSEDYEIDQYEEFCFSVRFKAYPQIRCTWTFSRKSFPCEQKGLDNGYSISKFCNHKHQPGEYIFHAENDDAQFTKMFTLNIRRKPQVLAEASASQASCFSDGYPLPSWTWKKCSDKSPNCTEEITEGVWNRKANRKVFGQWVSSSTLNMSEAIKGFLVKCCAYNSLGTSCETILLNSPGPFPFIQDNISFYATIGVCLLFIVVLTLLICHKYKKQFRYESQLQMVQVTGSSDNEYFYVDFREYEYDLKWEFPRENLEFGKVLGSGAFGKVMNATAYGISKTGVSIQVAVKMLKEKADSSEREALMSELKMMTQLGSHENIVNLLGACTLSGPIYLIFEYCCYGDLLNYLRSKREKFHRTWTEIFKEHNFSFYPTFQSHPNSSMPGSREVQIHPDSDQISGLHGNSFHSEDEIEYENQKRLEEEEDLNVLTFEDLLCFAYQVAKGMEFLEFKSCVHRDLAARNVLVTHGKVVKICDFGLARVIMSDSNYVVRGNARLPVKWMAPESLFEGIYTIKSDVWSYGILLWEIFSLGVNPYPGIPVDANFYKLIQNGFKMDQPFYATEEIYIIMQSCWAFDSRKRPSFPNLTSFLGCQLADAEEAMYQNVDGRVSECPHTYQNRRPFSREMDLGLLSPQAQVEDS
Source text: (§1) Kinase binding data were obtained for various exemplary compounds prepared according to Examples 2-15 using the DiscoverX KINOMEscan® active site-directed competition binding site-directed assay protocol described below. […] As a result, the data report thermodynamic interaction affinities (Kd values), rather than IC50 values that are dependent on ATP concentrations. The assay uses a DNA-tagged version of the protein kinase, and an immobilized ligand bound to a solid support. Compounds that directly or indirectly prevent kinase binding to the immobilized ligand reduce the amount of kinase captured on the solid support, which is detected using an ultra-sensitive qPCR method. Affinity constants reported from the assay have been reported to be independent of the immobilized ligand used that is coupled to the solid support (See supplemental information in Fabian, M. A. et. al., (2005) Nat. […] Wodicka, L. […] Biol. 17, 1241-1249.) Kinase-tagged T7 phage strains were prepared in an E. coli host derived from the BL21 strain. E. coli were grown to log-phase and infected with T7 phage and incubated with shaking at 32° C. until lysis. […] Kds were determined using an 11-point 3-fold compound dilution series with three DMSO control points. […] The kinase concentration in the eluates was measured by qPCR. Binding constants (Kds) were calculated with a standard dose-response curve using the Hill equation. […]

FLT3 K663Q = molecular target: T2, FLT3 K663Q (Homo sapiens, UniProt P36888, K663Q); test: DiscoverX KINOMEscan competition binding, FLT3 K663Q; conditions: no ATP
T2 construct: purchased DiscoverX (KINOMEscan); host or cells: E. coli (T7 phage) or HEK-293
T2 sequence (P36888 27-993 K663Q): T1 sequence (P36888 27-993 D835V) with K637Q, V809D
Source text: as §1

COc1cc2ncc(-c3nc(N[C@H]4CNCC[C@@H]4F)c(F)cc3F)n2nc1C1CCC1 [Compound 15a, 6-(6-cyclobutyl-7-methoxyimidazo[1,2-b]pyridazin-3-yl)-3,5-difluoro-N-((3S,4S)-4-fluoropiperidin-3-yl)pyridin-2-amine]
Kd (FLT3 D835V): < 0.17 nM
Kd (FLT3 K663Q): 0.62 nM

Reference: patent US20250368648A1, “MULTI-CYCLIC IRAK AND FLT3 INHIBITING COMPOUNDS AND USES THEREOF” (CHILDREN'S HOSPITAL MEDICAL CENTER, priority 2022, published 2025)
